Results on 2 molecules are retold here after US6649762B1, “Crystal modification C of 8-cyano-1-cyclopropyl-7-(1S,6S-2,8-diazabicyclo-[4.3.0]nonan-8-yl)-6-fluoro-1,4-dihyro-4-oxo-3-quinoline carboxylic” (Bayer Aktiengesellschaft, priority 1999, dated 2003).

Series [1] can be described thus: hygroscopicity of the solid. The format is physicochemical. The note with it: powder obtained by the known preparation process.
Series [2] can be described thus: storage stability of the crystal modification. The format is physicochemical. The settings on record: prolonged storage.
The next series deals with pathogenic bacteria. Nature of the series: activity against pathogenic bacteria. The settings on record: area of human or veterinary medicine.

The structures appear in SMILES notation.

On to `N#Cc1c(N2C[C@@H]3CCCN[C@@H]3C2)c(F)cc2c(=O)c(C(=O)O)cn(C3CC3)c12` [partially amorphous powder, 8-cyano-1-cyclopropyl-7-(1S,6S-2,8-diazabicyclo[4.3.0]nonan-8-yl)-6-fluoro-1,4-dihydro-4-oxo-3-quinolinecarboxylic acid], for which the hygroscopicity result in series [1] is “hygroscopic”.

As for `N#Cc1c(N2C[C@@H]3CCCN[C@@H]3C2)c(F)cc2c(=O)c(C(=O)O)cn(C3CC3)c12` [CCDC of the crystal modification C, 8-cyano-1-cyclopropyl-7-(1S,6S-2,8-diazabicyclo[4.3.0]nonan-8-yl)-6-fluoro-1,4-dihydro-4-oxo-3-quinolinecarboxylic acid], in series [2], the “stability of the crystal modification (change into another crystal modification or the amorphous form)” value is reported as “does not change into another crystal modification or the amorphous form”. In addition, the “activity against pathogenic bacteria” value in the series on pathogenic bacteria is “highly active”.
